One data set deals with FKBP12 (Homo sapiens, UniProt P62942). Briefly: rotamase inhibition assay (N-succinyl-Ala-Ala-Pro-Phe-p-nitroanilide, chymotrypsin-coupled). Conditions: for pKi: apparent Ki, NI = no inhibition at the concentrations tested, read-out: Rotamase Ki(app). In kind it is biochemical. How it is done:
In the rotamase inhibition assay, isomerization of an artificial substrate N-succinyl-Ala-Ala-Pro-Phe-p-nitroanilide is followed spectrophotometrically. The assay includes the cis form of the substrate, FKBP12, the compound being tested, and chymotrypsin. Chymotrypsin is able to cleave p-nitroaniline from the trans form of the substrate, but not from the cis form. Release of p-nitroaniline is measured spectrophotometrically. Using this assay, various amounts of the FKBP rotamase-inhibiting compounds of formula (I-a) or (I-b) were added to cis-N-succinyl-alanine-alanine-proline-phenylalanine-para-nitroaniline (Bachem, 3132 Kashiwa Street, Torrance, Calif. 90505) in the presence of FKBP12 and chymotrypsin. Spectrophotometric measurements of p-nitroaniline concentrations allowed estimation of the apparent Ki values, which are provided in Table 1 below.

pKi: −log10 of the molar value.

Chain of FKBP12 (P62942 whole entry, species assumed): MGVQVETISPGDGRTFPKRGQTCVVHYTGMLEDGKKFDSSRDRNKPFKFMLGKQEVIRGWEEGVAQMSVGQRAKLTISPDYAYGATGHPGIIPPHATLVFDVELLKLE

Broadly, the melting point is the temperature, or range, at which the solid turns liquid. For the molecule `COc1cc(C(=O)C(=O)N2C3CCCC2C(=O)N(CCCCc2ccccc2)C3=O)cc(OC)c1OC`, the melting point is 101 to 103 °C. What is called pKi is the Ki on a negative log10 scale, so that one unit is a factor of ten. With `COC1(C(=O)C(=O)N2C3CCCC2C2=Cc4cc(C(F)(F)F)cc(C(F)(F)F)c4CN2C3=O)CCCC1` (centres unmarked) [Compound 146], the pKi on FKBP12 is less than 4.30. On the same count and under the same terms, the figure for `CCC(C)(C)C(=O)C(=O)N1C2CCCC1C(=O)N(C1CCCCC1)C2` (centres unmarked) [Compound 57] is 4.13; for `CCC(C)(C)C(=O)C(=O)N1C2CCCC1C(=O)N(C1CCCC1)C2` (centres unmarked) [Compound 69] it is 4.48.

In the case of `COc1cc(OC)cc(N2C=C3C4CCCC(C(=O)N3CC2=O)N4C(=O)C(=O)C2(c3ccccc3)CCCC2)c1` (centres unmarked) [Compound 156], the pKi on FKBP12 was 5.82. `CCC(C)(C)C(=O)C(=O)N1C2CCCC1C1=CN(CC3CC3)C(=O)CN1C2=O` (centres unmarked) [Compound 123]: the pKi on FKBP12 is 5.92. Same read-out and setting: the same measure for `CC(C)[C@@H]1CC[C@@H](C)[C@](C)(C(=O)C(=O)N2C3CCCC2C(=O)N(CCOCc2ccccc2)C3)C1` (some centres unmarked) [Compound 54]: 5.22. For orientation: inhibition means how much of the control response was suppressed. A low value points to a weak effect. For `CCCC(CCC)C(=O)OC[C@@H](CN1CC2CCCC(C1=O)N2C(=O)C(=O)C(C)(C)CC)OCc1ccccc1` (some centres unmarked) [Compound 55], at FKBP12 (@ 2.5 μM), the inhibition at 2.5 µM amounted to 40%.

These data come from patent US6630472B1, “Compounds, pharmaceutical compositions, and methods for stimulating neuronal growth and elongation” (priority 1998, dated 2003).
